Earlier results on one molecule are cited in US20170224936A1, “Nasal treatment delivery device with carbon dioxide and saline, and methods” (priority 2016, published 2017).

For data set [1] the following is noted: carbon dioxide gas treatments per Capnia prior art to Rasor et al.

For `O=C=O` [CO(2), carbon dioxide], in data set [1], the severe stinging result is “had occurred”. Further, the sneezes result (20-second exposure, compared with no treatment, p=0.05) is given as “significant reduction”. For the same molecule, under “after pretreatment with CO(2)”, the “histamine levels in ipsilateral nasal secretions” value is given as “did not increase”. Besides, the ipsilateral secretion weights result (compared with no treatment) is reported as “numerically reduced”. For the same molecule, the “bilateral runny nose symptoms” value (compared with no treatment, p=0.01) is listed as “significant reduction”. Besides, for the setting “compared with no treatment, p=0.04”, the contralateral secretion weights result is “significant reduction”. The sensation during exposure result (during exposure to CO(2)) is recorded as “transient burning sensation”.
